This is an account of results in patent US20250115598A1 (Anaxis Pharma Pty Ltd, priority 2021, published 2025).

By IC50 is commonly meant the midpoint of a concentration-inhibition curve. Usually DC50 stands for the concentration at which degradation of the target reaches its halfway point.

Where two headings read alike, the source gives them in different places.

The test system of test [1] is Immortalised Mouse Dermal Fibroblasts (MDFs). Nature of the test: Cellular assay: inhibition of TSI induced necroptosis, CellTitre-Glo viability. The note with it: MDF, 3 hours TSI cocktail, read-out: Inhibition of TSI-induced necroptosis (IC50 cell-based assay) in MDF. The essentials: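 Necroptosis induced for 3 h with TSI: rhTNF 100 ng/ml, Smac mimetic 500 nM, caspase inhibitor IDN-6556 10 μM. Mouse dermal fibroblasts had received compound (36 μM top, ten three-fold steps) 30 min beforehand. ATP-based viability scaled between untreated and TSI-only wells; IC50 taken as 4-parameter curve inflection.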

Test [2] addresses endogenous MLKL in U937 (Homo sapiens (Human), UniProt Q8NB16). In words: Degradation assay: endogenous MLKL in U937 (western blot). The note with it: U937, 24 h incubation, read-out: Degradation of endogenous MLKL in U937 (DC50 cell-based assay). The method in brief:
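Western blot band intensity of MLKL, adjusted to GAPDH loading and normalized to DMSO-only wells, gave percent degradation. Compound exposure lasted 24 h at final concentrations of 10–0.016 μM in 1:5 steps, in mouse dermal fibroblasts or human U937 cells.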
A general note: A western blot detects proteins with antibodies after separation by electrophoresis.

Where [3] appears, read: Mus musculus, Fibroblast, Table 27.

Sequence of endogenous MLKL in U937 (Q8NB16 whole entry): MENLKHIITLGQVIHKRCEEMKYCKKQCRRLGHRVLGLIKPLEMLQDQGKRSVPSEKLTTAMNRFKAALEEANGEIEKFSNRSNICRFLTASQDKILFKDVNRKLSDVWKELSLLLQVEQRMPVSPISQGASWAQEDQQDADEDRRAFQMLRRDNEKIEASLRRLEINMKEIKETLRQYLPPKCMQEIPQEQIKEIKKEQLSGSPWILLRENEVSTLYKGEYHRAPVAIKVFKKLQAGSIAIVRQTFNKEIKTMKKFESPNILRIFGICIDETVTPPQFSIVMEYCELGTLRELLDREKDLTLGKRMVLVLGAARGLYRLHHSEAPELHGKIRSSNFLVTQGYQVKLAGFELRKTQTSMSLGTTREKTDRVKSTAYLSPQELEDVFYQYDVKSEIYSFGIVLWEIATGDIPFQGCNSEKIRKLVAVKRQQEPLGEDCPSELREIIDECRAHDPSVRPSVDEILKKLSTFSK

With “N-(4-(4-amino-1-methyl-7-(1-(1,2,2-trimethylpiperidin-4-yl)-1H-pyrazol-4-yl)-1H-pyrazolo[4,3-c]pyridin-3-yl)-2-((S)-1-(4-fluorophenyl)ethoxy)phenyl)-1,1-difluoromethanesulfonamide [Compound 113]”, the IC50 in test [1] (Table 24) was less than 1 µM.

As to `Cc1ncsc1-c1ccc(CNC(=O)[C@@H]2C[C@@H](O)CN2C(=O)[C@@H](NC(=O)COCCOCCn2cc(-c3cnc(N)c4c(-c5ccc(NS(=O)(=O)C(F)F)c(O[C@@H](C)c6ccc(F)cc6)c5)nn(C)c34)cn2)C(C)(C)C)cc1` [Compound 1006, (2S,4R)-1-[(2S)-2-(2-{2-[2-(4-{4-amino-3-[4-(difluoromethanesulfonamido)-3-[(1S)-1-(4-fluorophenyl)ethoxy]phenyl]-1-methyl-1H-pyrazolo[4,3-c]pyridin-7-yl}-1H-pyrazol-1-yl)ethoxy]ethoxy}acetamido)-3,3-dimethylbutanoyl]-4-hydroxy-N-{[4-(4-methyl-1,3-thiazol-5-yl)phenyl]methyl}pyrrolidine-2-carboxamide], the IC50 in test [1] (setting [3]) fell in the range of 1 to 10 µM. For the same compound, the DC50 in test [2] was less than 1 µM.

`Cc1ncsc1-c1ccc(CNC(=O)[C@@H]2C[C@@H](O)CN2C(=O)[C@@H](NC(=O)COCCN2CCCC(n3cc(-c4cnc(N)c5c(-c6ccc(NS(=O)(=O)C(F)F)c(O[C@@H](C)c7ccc(F)cc7)c6)nn(C)c45)cn3)C2)C(C)(C)C)cc1` (stereo partly drawn) [Compound 1015, (2S,4R)-1-[(2S)-2-(2-{2-[3-(4-{4-amino-3-[4-(difluoromethanesulfonamido)-3-[(1S)-1-(4-fluorophenyl)ethoxy]phenyl]-1-methyl-1H-pyrazolo[4,3-c]pyridin-7-yl}-1H-pyrazol-1-yl)piperidin-1-yl]ethoxy}acetamido)-3,3-dimethylbutanoyl]-4-hydroxy-N-{[4-(4-methyl-1,3-thiazol-5-yl)phenyl]methyl}pyrrolidine-2-carboxamide]: the IC50 in test [1] (setting [3]) was in the range of 1 to 10 µM. In addition, in test [2], the DC50 is 1 to 10 µM.

Turning to `Nc1ncc(-c2cnn(C3CCOCC3)c2)c2[nH]nc(-c3ccc(NS(=O)(=O)C(F)F)c(OCc4cccc(Cl)c4)c3)c12` [Compound 131], in test [1] (Table 24), the IC50 was in the range of 1 to 10 µM.

On to `Cc1ncsc1-c1ccc(CNC(=O)[C@@H]2C[C@@H](O)CN2C(=O)[C@@H](NC(=O)CCCCCCn2cc(-c3cnc(N)c4c(-c5ccc(NS(=O)(=O)C(F)F)c(O[C@@H](C)c6ccc(F)cc6)c5)nn(C)c34)cn2)C(C)(C)C)cc1` [Compound 1008, (2S,4R)-1-[(2S)-2-[7-(4-{4-amino-3-[4-(difluoromethanesulfonamido)-3-[(1 S)-1-(4-fluorophenyl)ethoxy]phenyl]-1-methyl-1H-pyrazolo[4,3-c]pyridin-7-yl}-1H-pyrazol-1-yl)heptanamido]-3,3-dimethylbutanoyl]-4-hydroxy-N-{[4-(4-methyl-1,3-thiazol-5-yl)phenyl]methyl}pyrrolidine-2-carboxamide], for which the IC50 in test [1] (setting [3]) was less than 1 µM. Moreover, the DC50 in test [2] was less than 1 µM.

Regarding `C[C@H](Oc1cc(-c2nn(C)c3c(-c4cnn(CCCCCCCOc5cccc6c5C(=O)N(C5CCC(=O)NC5=O)C6=O)c4)cnc(N)c23)ccc1NS(=O)(=O)C(F)F)c1ccc(F)cc1` (stereo partly drawn) [Compound 1031, N-(4-{4-amino-7-[1-(7-{[2-(2,6-dioxopiperidin-3-yl)-1,3-dioxo-2,3-dihydro-1H-isoindol-4-yl]oxy}heptyl)-1H-pyrazol-4-yl]-1-methyl-1H-pyrazolo[4,3-c]pyridin-3-yl}-2-[(1 S)-1-(4-fluorophenyl)ethoxy]phenyl)-1,1-difluoromethanesulfonamide], the IC50 in test [1] (setting [3]) was less than 1 µM.

Turning to `Cc1ncsc1-c1ccc(CNC(=O)[C@@H]2C[C@@H](O)CN2C(=O)[C@@H](NC(=O)COCCN2CCC(n3cc(-c4cnc(N)c5c(-c6ccc(NS(=O)(=O)C(F)F)c(O[C@@H](C)c7ccc(F)cc7)c6)nn(C)c45)cn3)CC2)C(C)(C)C)cc1` [Compound 1018, (2S,4R)-1-[(2S)-2-(2-{2-[4-(4-{4-amino-3-[4-(difluoromethanesulfonamido)-3-[(1S)-1-(4-fluorophenyl)ethoxy]phenyl]-1-methyl-1H-pyrazolo[4,3-c]pyridin-7-yl}-1H-pyrazol-1-yl)piperidin-1-yl]ethoxy}acetamido)-3,3-dimethylbutanoyl]-4-hydroxy-N-{[4-(4-methyl-1,3-thiazol-5-yl)phenyl]methyl}pyrrolidine-2-carboxamide], the IC50 in test [1] (setting [3]) lay in the range of 1 to 10 µM.

Consider `Cc1ncsc1-c1ccc(CNC(=O)[C@@H]2C[C@@H](O)CN2C(=O)[C@@H](NC(=O)CCN2CCCC(n3cc(-c4cnc(N)c5c(-c6ccc(NS(=O)(=O)C(F)F)c(O[C@@H](C)c7ccc(F)cc7)c6)nn(C)c45)cn3)C2)C(C)(C)C)cc1` (stereo partly drawn) [Compound 1014, (2S,4R)-1-[(2S)-2-{3-[3-(4-{4-amino-3-[4-(difluoromethanesulfonamido)-3-[(1S)-1-(4-fluorophenyl)ethoxy]phenyl]-1-methyl-1H-pyrazolo[4,3-c]pyridin-7-yl}-1H-pyrazol-1-yl)piperidin-1-yl]propanamido}-3,3-dimethylbutanoyl]-4-hydroxy-N-{[4-(4-methyl-1,3-thiazol-5-yl)phenyl]methyl}pyrrolidine-2-carboxamide], for which, in test [1] (setting [3]), the IC50 is 1 to 10 µM. The DC50 in test [2] was less than 1 µM.
